How the values were obtained:
ΔXPA cells = test: Short-term survival after UV irradiation (CellTiter-Glo); format: cell-based, human; details: for protective effect of ΔXPA cells against UV (cell viability): different concentrations for 6 hours, then 10 J/M^2 UV (FIG. 10A-C)
From the text: A. Schematic representation of the experimental setup used to perform the high-throughput drug screen, where drugs were used at five-times maximal plasma concentration (CLOUD; CeMM library of unique drugs). B. Bubble plot displaying the drugs used plotted against cell viability. Light grey bubbles indicate wildtype (WT) cells, dark grey bubbles indicate XPA-deficient cells (ΔXPA). […] C. Chemical structure of acetohexamide. D. Dose-response curve of WT and ΔXPA cells treated with or without 0.5 mM acetohexamide for 6 hours, followed by UV irradiation. Survival was assessed after 3 days, using CellTiter-Glo. […] Error bars indicate SEM (n=3). E. Colony formation using the same conditions indicated in (D), where cells were kept in culture for 10 days following UV irradiation, following which they were fixed and stained.
A-C. Cell viability of ΔXPA cells treated with different concentrations of acetohexamide (aceto), gliclazide (GLC) and glimepiride (GLM) for 6 hours, followed by 10 J/M^2 of UV irradiation. D. Survival of WT and ΔXPA cells treated with or without 50 μM glibenclamide for 6 hours, followed by UV exposure. Survival was assessed after 3 days using CellTitre-Glo. E. Cell viability of ΔXPA cells treated with 10 μM of different derivatives of acetohexamide for 6 hours, followed by UV irradiation with 5 J/M^2.
(§1) For UV irradiation, cells were washed with PBS, trypsinized, counted and distributed in equal number then irradiated with different doses of UV as indicated. Finally, 1,000 cells were re-distributed into 96 well plates. After 72 hours, survival was measured using Cell Titer-Glo (Promega). Cells were irradiated with UVC using the UVP CX-2000 device (254 nm, Fisher Scientific).

WT cells = test: Cell viability of WT cells after UV exposure, comparison with antioxidant; format: cell-based, human; details: 30 μM NAC for 6 hours, then 30 J/M^2 UV, compared with 0.5 mM acetohexamide (FIG. 8E)
Description: A. WT and ΔXPA cells were either treated with DMSO or 0.5 mM acetohexamide for 6 hours. Cell cycle profiles were determined using propidium iodide (P1) staining followed by FACS analysis. B-D. Survival of WT HAP1 cells treated with either DMSO or 0.5 mM acetohexamide for 6 hours, followed by exposure to the indicated DNA damaging agents (MMC: mitomycin C; HU: hydroxyl urea; MMS: methyl methanesulfonate). Survival was assessed after 3 days using CellTitre-Glo. E. Cell viability of WT cells treated either with 0.5 mM acetohexamide or 30 μM N-acetylcysteine (NAC) for 6 hours, followed by 30 J/M^2 UV exposure.
as §1

Structure (SMILES)	protective effect of ΔXPA cells against UV (cell viability) (ΔXPA cells)	also measured
CCC1=C(C)CN(C(=O)NCCc2ccc(S(=O)(=O)NC(=O)N[C@H]3CC[C@H](C)CC3)cc2)C1=O [glimepiride]	showed a protective effect	
COc1ccc(Cl)cc1C(=O)NCCc1ccc(S(=O)(=O)NC(=O)NC2CCCCC2)cc1 [glibenclamide]		protective effect of ΔXPA cells against UV (survival) (ΔXPA cells; 50 μM for 6 hours, then UV, survival after 3 days (FIG. 10D)): Only glimepiride showed a protective effect
CC(=O)N[C@@H](CS)C(=O)O [N-acetylcysteine]		alleviating UV-induced sensitivity (cell viability) (WT cells): very minor effect in alleviating UV-induced sensitivity compared to acetohexamide
Cc1ccc(S(=O)(=O)NC(=O)NN2CC3CCCC3C2)cc1 (stereo not shown) [gliclazide]	Only glimepiride showed a protective effect	

From US20200171056A1, “SULFONYLUREA COMPOUNDS IN THE TREATMENT OF DISEASE ASSOCIATED WITH UV-INDUCED DAMAGE” (CeMM - Forschungszentrum für Molekulare Medizin GmbH, priority 2017, published 2020)
